Read-outs that look alike come from different tables or passages of the source.
Legend:
Type in all cases: cell-based
BCL-XL = target: T1, BCL-XL (Homo sapiens, UniProt Q07817); test: BCL-XL degradation assay in MOLT-4 cells (ELISA, 6 h); details: for DC50: read-out: Bcl-xL ELISA in MOLT-4 degradation 6 h: External Abs-DC50
T1 construct: BCL-XL degradation results in MOLT-4 cells for compounds of the invention; endogenous in cells; host or cells: MOLT-4

MOLT-4 cells = test: CTG (CellTiter-Glo) cell viability assay, MOLT-4; details: Homo sapiens, MOLT-4, 72 h, MOLT-4, 3 day; read-out: CTG Cell Viability Assay - MOLT-4 3 day: Average external-IC50
Procedure, shortened: (§1)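 Cells seeded at 10,000 per well, then exposed to a 9-point 1:3 dilution series from 10 µM top concentration (0.2% DMSO) for 3 days at 37 °C, 5% CO2. Viability measured by CellTiter-Glo luminescence; IC50 from a three-parameter logistic fit.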

Caki-2 cells = test: CTG (CellTiter-Glo) cell viability assay, Caki-2; details: Caki-2, 3-day, read-out: CTG Chempartner/PHA- Caki-2 3-day: Average external-IC50
Procedure, shortened: as §1

T1 sequence (Q07817 whole entry): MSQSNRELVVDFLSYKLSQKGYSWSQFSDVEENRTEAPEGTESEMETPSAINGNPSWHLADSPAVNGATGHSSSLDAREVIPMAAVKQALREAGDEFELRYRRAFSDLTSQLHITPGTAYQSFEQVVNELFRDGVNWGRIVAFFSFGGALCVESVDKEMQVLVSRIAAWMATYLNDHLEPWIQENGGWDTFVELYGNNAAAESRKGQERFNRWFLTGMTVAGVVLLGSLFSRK

Row | SMILES | Dmax (BCL-XL) | DC50 (BCL-XL) | IC50 (MOLT-4 cells) | IC50 (Caki-2 cells; Homo sapiens, CAKI-2, 72 h) | IC50 (Caki-2 cells)
1 | Cc1ncsc1-c1ccc([C@H](C)NC(=O)[C@@H]2C[C@@H](O)CN2C(=O)[C@@H](NC(=O)CCCCCN(C)CCCNc2ccc(S(=O)(=O)NC(=O)c3ccc(N4CCC([C@H](O)c5ccccc5-c5ccc(Cl)cc5)CC4)cc3Oc3cnc4[nH]ccc4c3)cc2S(=O)(=O)C(F)(F)F)C(C)(C)C)cc1 [I-67] | 50 to 75% | 0.5 to 1 µM | > 3 µM | > 30 µM | 
2 | Cc1ncsc1-c1ccc([C@H](C)NC(=O)[C@@H]2C[C@@H](O)CN2C(=O)[C@@H](NC(=O)CCCCCCC(=O)N2CCN(Cc3ccc(-c4ccc(Cl)cc4)c(CN4CCN(c5ccc(C(=O)NS(=O)(=O)c6ccc(N[C@H](CCN(C)C)CSc7ccccc7)c([N+](=O)[O-])c6)cc5)CC4)c3)CC2)C(C)(C)C)cc1 [I-5] | > 75% | 0.01 to 0.1 µM | 0.1 to 1 µM | > 30 µM | 
3 | Cc1ncsc1-c1ccc([C@H](C)NC(=O)[C@@H]2C[C@@H](O)CN2C(=O)[C@@H](NC(=O)CCCCCCN(C)CC[C@H](CSc2ccccc2)Nc2ccc(S(=O)(=O)NC(=O)c3ccc(N4CCN(Cc5ccccc5-c5ccc(Cl)cc5)CC4)cc3)cc2[N+](=O)[O-])C(C)(C)C)cc1 [I-14] | < 50% | 0.5 to 1 µM | > 3 µM | > 30 µM | 
4 | Cc1ncsc1-c1ccc([C@H](C)NC(=O)[C@@H]2C[C@@H](O)CN2C(=O)[C@@H](NC(=O)CCCCC(=O)N2CCN(CC[C@H](CSc3ccccc3)Nc3ccc(S(=O)(=O)NC(=O)c4ccc(N5CCC([C@@H](O)c6ccccc6-c6ccc(Cl)cc6)CC5)cc4)cc3S(=O)(=O)C(F)(F)F)CC2)C(C)(C)C)cc1 [I-109] | > 75% | 0.01 to 0.1 µM | 0.1 to 1 µM | > 30 µM | 
5 | C#Cc1ccc([C@H](CO)NC(=O)[C@@H]2C[C@@H](O)CN2C(=O)[C@@H](NC(=O)CCCCCC(=O)N2CCN(CC[C@H](CSc3ccccc3)Nc3ccc(S(=O)(=O)NC(=O)c4ccc(N5CCN([C@@H](O)c6ccccc6-c6ccc(Cl)cc6)CC5)cc4)cc3S(=O)(=O)C(F)(F)F)CC2)C(C)(C)C)cc1 [I-135] | > 75% | 0.01 to 0.1 µM | < 0.1 µM | 10 to 30 µM | 
6 | Cc1ncsc1-c1ccc([C@H](C)NC(=O)[C@@H]2C[C@@H](O)CN2C(=O)[C@@H](NC(=O)CCCCC(=O)N2CCN(CCCNc3ccc(S(=O)(=O)NC(=O)c4ccc(N5CCN(CC6=C(c7ccc(Cl)cc7)CC(C)(C)CC6)CC5)cc4Oc4cnc5[nH]ccc5c4)cc3S(=O)(=O)C(F)(F)F)CC2)C(C)(C)C)cc1 [I-63] | 50 to 75% | 0.1 to 0.5 µM | 1 to 3 µM | > 30 µM | 
7 | Cc1ncsc1-c1ccc(CNC(=O)[C@@H]2C[C@@H](O)CN2C(=O)[C@@H](NC(=O)CCCCCCC(=O)N2CCN(C[C@]3(C)CCC(c4ccc(Cl)cc4)=C(CN4CCN(c5ccc(C(=O)NS(=O)(=O)c6ccc(NCCCN7CCOCC7)c(S(=O)(=O)C(F)(F)F)c6)c(Oc6cnc7[nH]ccc7c6)c5)CC4)C3)CC2)C(C)(C)C)cc1 [I-131] | < 50% | 0.5 to 1 µM | 0.1 to 1 µM |  | > 30 µM
8 | Cc1ncsc1-c1ccc([C@H](C)NC(=O)[C@@H]2C[C@@H](O)CN2C(=O)[C@@H](NC(=O)CCCCCC(=O)N2CCN(CC[C@H](CSc3ccccc3)Nc3ccc(S(=O)(=O)NC(=O)c4ccc(N5CCN([C@@H](O)c6ccccc6-c6ccc(Cl)cc6)CC5)cc4)cc3S(=O)(=O)C(F)(F)F)CC2)C(C)(C)C)cc1 [I-121] | > 75% | < 0.01 µM | < 0.1 µM | 10 to 30 µM | 
9 | Cc1ncsc1-c1ccc([C@H](C)NC(=O)[C@@H]2C[C@@H](O)CN2C(=O)[C@@H](NC(=O)CCCCCC(=O)N2CCN(CCCN(C)CC[C@H](CSc3ccccc3)Nc3ccc(S(=O)(=O)NC(=O)c4ccc(N5CCC([C@@H](O)c6ccccc6-c6ccc(Cl)cc6)CC5)cc4)cc3S(=O)(=O)C(F)(F)F)CC2)C(C)(C)C)cc1 [I-24] | < 50% | 0.5 to 1 µM | > 3 µM | > 30 µM | 
10 | Cc1ncsc1-c1ccc([C@H](C)NC(=O)[C@@H]2C[C@@H](O)CN2C(=O)[C@@H](NC(=O)CCCCCN2CCN(CCCNc3ccc(S(=O)(=O)NC(=O)c4ccc(N5CCN(CC6=C(c7ccc(Cl)cc7)CC(C)(C)CC6)CC5)cc4Oc4cnc5[nH]ccc5c4)cc3S(=O)(=O)C(F)(F)F)CC2)C(C)(C)C)cc1 [I-74] | < 50% | 0.5 to 1 µM | 0.1 to 1 µM | > 30 µM | 
11 | Cc1ncsc1-c1ccc([C@H](C)NC(=O)[C@@H]2C[C@@H](O)CN2C(=O)[C@@H](NC(=O)CCCCCCN(C)CC[C@H](CSc2ccccc2)Nc2ccc(S(=O)(=O)NC(=O)c3ccc(N4CCC([C@@H](O)c5ccccc5-c5ccc(Cl)cc5)CC4)cc3)cc2S(=O)(=O)C(F)(F)F)C(C)(C)C)cc1 [I-108] | 50 to 75% | 0.01 to 0.1 µM | < 0.1 µM | > 30 µM | 
12 | Cc1ncsc1-c1ccc([C@H](C)NC(=O)[C@@H]2C[C@@H](O)CN2C(=O)[C@@H](NC(=O)CCCCCCC(=O)N2CCN(CCCNc3ccc(S(=O)(=O)NC(=O)c4ccc(N5CCN(CC6=C(c7ccc(Cl)cc7)CC(C)(C)CC6)CC5)cc4Oc4cnc5[nH]ccc5c4)cc3S(=O)(=O)C(F)(F)F)CC2)C(C)(C)C)cc1 [I-81] | > 75% | 0.01 to 0.1 µM | < 0.1 µM | > 30 µM | 
13 | Cc1ncsc1-c1ccc([C@H](C)NC(=O)[C@@H]2C[C@@H](O)CN2C(=O)[C@@H](NC(=O)CCCC(=O)N2CCN(CCCNc3ccc(S(=O)(=O)NC(=O)c4ccc(N5CCC([C@H](O)c6ccccc6-c6ccc(Cl)cc6)CC5)cc4Oc4cnc5[nH]ccc5c4)cc3S(=O)(=O)C(F)(F)F)CC2)C(C)(C)C)cc1 (single isomer, unassigned) [I-60] | < 50% | 0.5 to 1 µM | 1 to 3 µM | > 30 µM | 
14 | Cc1ncsc1-c1ccc([C@H](C)NC(=O)[C@@H]2C[C@@H](O)CN2C(=O)[C@@H](NC(=O)CCCCCCC(=O)N2CCN(Cc3ccc(-c4ccc(Cl)cc4)c([C@H](O)C4CCN(c5ccc(C(=O)NS(=O)(=O)c6ccc(N[C@H](CCN(C)CCO)CSc7ccccc7)c(S(=O)(=O)C(F)(F)F)c6)cc5)CC4)c3)CC2)C(C)(C)C)cc1 [I-25] | > 75% | 0.01 to 0.1 µM | 0.1 to 1 µM | > 30 µM | 
15 | C#Cc1ccc([C@H](C)NC(=O)[C@@H]2C[C@@H](O)CN2C(=O)[C@@H](NC(=O)CCCCCC(=O)N2CCN(CCCNc3ccc(S(=O)(=O)NC(=O)c4ccc(N5CCN(CC6=C(c7ccc(Cl)cc7)CC(C)(C)CC6)CC5)cc4Oc4cnc5[nH]ccc5c4)cc3S(=O)(=O)C(F)(F)F)CC2)C(C)(C)C)cc1 [I-85] | < 50% | 0.5 to 1 µM | 0.1 to 1 µM | > 30 µM | 
16 | Cc1ncsc1-c1ccc([C@H](C)NC(=O)[C@@H]2C[C@@H](O)CN2C(=O)[C@@H](NC(=O)CCCCCC(=O)N2CCC(NCC[C@H](CSc3ccccc3)Nc3ccc(S(=O)(=O)NC(=O)c4ccc(N5CCN([C@@H](O)c6ccccc6-c6ccc(Cl)cc6)CC5)cc4)cc3S(=O)(=O)C(F)(F)F)CC2)C(C)(C)C)cc1 [I-127] | 50 to 75% | 0.5 to 1 µM | > 3 µM | > 30 µM | 
17 | Cc1ncsc1-c1ccc([C@H](C)NC(=O)[C@@H]2C[C@@H](O)CN2C(=O)[C@@H](NC(=O)CCCCCC(=O)N2CCN(CCCNc3ccc(S(=O)(=O)NC(=O)c4ccc(N5CCC([C@H](O)c6ccccc6-c6ccc(Cl)cc6)CC5)cc4Oc4cnc5[nH]ccc5c4)cc3S(=O)(=O)C(F)(F)F)CC2)C(C)(C)C)cc1 (single isomer, unassigned) [I-38] | 50 to 75% | 0.1 to 0.5 µM | 0.1 to 1 µM | > 30 µM | 

— patent US20260092057A1, “BCL-XL/BCL-2 DEGRADERS AND USES THEREOF” (Kymera Therapeutics, Inc., priority 2022, published 2026)
